Patent US20050169964A1, “Antibiotic calcium phosphate coating” (Howmedica Osteonics Corp., priority 2001, published 2005)

What was measured:
[1] = system: Staphylococcus aureus (ATCC strain #6538); test: modified Kirby Bauer susceptibility model, zone of inhibition around antibiotic containing HA disk; format: cell-based; details: for Zone of Inhibition (mm): antibiotic absorbed into precipitated crystalline HA coating, Mueller-Hinton agar, 24 hr at 37° C.
Procedure: 1.2 Grams of tobramycin sulfate was dissolved in 12 milliliters of sterile deionized water (100 mg/ml). […] Ten (10) μl of solution was pipetted onto the surface of each of the […] coated disks and allowed to dry. […] The test coupons were then placed into a buffered saline at 37° C. immediately after the absorption process was completed. […] In the well-known Kirby Bauer Susceptibility Model test organisms were propagated and handled in accordance with ATCC recommendations for broth media, agar, and incubation specifications. […] Each seeded plate was challenged with both an antibiotic containing HA disk and a non-antibiotic containing HA disk, which served as a control. Samples were tested in duplicate (i.e., two plates per organism). Following incubation for 24 hr. at 37° C., the plates were examined for zones of inhibition around the disks. The zone of inhibition is defined as the distance between the test disk and the edge of bacterial growth. It is common for a hazy, or “ghost” zone to exist between the areas of complete inhibition and full bacterial growth. This “ghost” zone is the result of partial inhibition and is not included in the measurement of the zone of inhibition.

[2] = system: adductor muscles (intramuscular pouch); format: in vivo, Long-Evans male rats
Text: In-vivo study of OP-1® Osteogenic graft material coated implants: Freshly reconstituted OP-1® Osteogenic graft material in lactose solution was loaded onto each surface of the PA coated disk using sterile pipettes. The solution evenly spaced across the dry surface and was completely absorbed. Sixteen Long-Evans male rats with body weight 300-390 g were used in the study. The animals were anesthetized and an incision was made on the medial thigh to prepare intramuscular pouch within the adductor muscles for placement of the implant articles, on both contra-lateral limbs. A total of 32 implants were divided into 4 groups: (A) titanium disks; (B) titanium disks coated with PA, (C) titanium disks coated with PA plus OP-1® Osteogenic graft material (40 μg), (D) OP-1® Osteogenic graft material solution (40 μg). For Group C, the OP-1® Osteogenic graft material solution was directly pipeted on each Ti disk immediately before implantation. The solution was absorbed within 1 minute. For Group D, OP-1® Osteogenic graft material solution was dropped into the muscular pouch. The same amount of identical carrier solution for OP-1® Osteogenic graft material was loaded on disks of Groups A and B. After implantation, the pouch was closed with 3-0 chromic sutures, and the wound was closed in layers. The rats were housed individually and allowed unrestricted activity immediately after […]. All the animals were sacrificed 4 weeks postoperatively. The complete limb was disarticulated from hip joint and x-rayed. The implants with their surrounding tissues were retrieved. All implants were processed for undecalcified thin section histology using EXAKT technique. The slides were stained with Stevenel's blue/van Gieson's picrofuchsin method for histological analysis. Bone was stained in red color and fibrous tissue in blue. Half of the specimens of Group D were decalcified and embedded in paraffin. Sections were stained with hematoxylin and eosin.

[3] = precipitation of OP-1 protein in solution; format: physicochemical
[4] = binding of [125I]OP-1 to PA coated titanium disks (scintillation counting); details: FIG. 3 time course
Procedure: Materials and Methods—Preparation of implant test articles: Titanium alloy (Ti6A14V) disks/coupons 5 mm in diameter and 3 mm thick were coated both sides with PA coating using the method of Example I. The thickness of the coating surface was determined by SEM to be nominally 20 μm to 50 μm.
Determination of the binding capacity of OP-1® Osteogenic graft material: A pre-mixed blend of unlabelled OP-1® Osteogenic graft material with iodine [^125I] for tracking purposes was used. The OP-1® Osteogenic graft material in a lactose solution was pipetted on PA coated disks in triplicate. A range of OP-1® Osteogenic graft material incubation time and concentration treatment was applied to determine the time-course and binding capacity of the graft material on the PA coated disk. Following the incubation, each coupon was washed with lactose solution and the washes were collected in a scintillation vial. 10 ml of the scintillation cocktail was added to each test article and wash sample and the scintillation counts were measured in a liquid scintillation counter (LSC) to calculate the amount of OP-1® Osteogenic graft material bound to the PA coated disk.

Molecule | Zone of Inhibition (mm) [1] [mm] | also measured
NC[C@H]1O[C@H](O[C@H]2[C@H](O)[C@@H](O[C@H]3O[C@H](CO)[C@@H](O)[C@H](N)[C@H]3O)[C@H](N)C[C@@H]2N)[C@H](N)C[C@@H]1O [Tobramycin] | 10 | biological activity of released antibiotic ([1]; after absorption into the hydroxyapatite structure): remained biologically active
Penicillin [Penicillin Benzathine] | 22.5 | 
Penicillin [Penicillin Potassium Salt] | 29 | 
CC(=O)OCC1=C(C(=O)O)N2C(=O)[C@@H](NC(=O)CCC[C@@H](N)C(=O)O)[C@H]2SC1 [Cephalosporin C] | 11.5 | 
O=C(O)c1cn(C2CC2)c2cc(N3CCNCC3)c(F)cc2c1=O [Ciprofloxacin] | 15.5 | 
N[C@@H](C(=O)N[C@@H]1C(=O)N2C(C(=O)O)=C(Cl)CS[C@H]12)c1ccccc1 [Cefaclor] | 20.5 | 
Cn1nnnc1SCC1=C(C(=O)O)N2C(=O)[C@@H](NC(=O)[C@H](O)c3ccccc3)[C@H]2SC1 [Cefamandole] | 25 | 
CC1=C(C(=O)O)N2C(=O)[C@@H](NC(=O)[C@H](N)c3ccccc3)[C@H]2SC1 [Cephalexin] | 19 | 
CN[C@H](CC(C)C)C(=O)N[C@H]1C(=O)N[C@@H](CC(N)=O)C(=O)N[C@H]2C(=O)N[C@H]3C(=O)N[C@H](C(=O)N[C@H](C(=O)O)c4cc(O)cc(O)c4-c4cc3ccc4O)[C@H](O)c3ccc(c(Cl)c3)Oc3cc2cc(c3O[C@@H]2O[C@H](CO)[C@@H](O)[C@H](O)[C@H]2O[C@H]2C[C@](C)(N)[C@H](O)[C@H](C)O2)Oc2ccc(cc2Cl)[C@H]1O [Vancomycin] | 10.5 | 
Penicillin [Penicillin Sodium Salt] | 28 | 
Penicillin [Penicillin Procaine] | 26.5 | 
OP-1® Osteogenic graft material: Osteogenic protein-1, a 36 kD homodimer protein in the TGI-β super-family; a bone morphogenic protein (protein, UniProt P18075 293-431, looked up, graft material, Osteogenic protein-1, a 36 kD homodimer protein in the TGI-β super-family; a bone morphogenic protein) Bone morphogenetic protein 7: STGSKQRSQNRSKTPKNQEALRMANVAENSSSDQRQACKKHELYVSFRDLGWQDWIIAPEGYAAYYCEGECAFPLNSYMNATNHAIVQTLVHFINPETVPKPCCAPTQLNAISVLYFDDSSNVILKKYRNMVVRACGCH |  | extension of new bone surrounding the disks ([2]; Group C: titanium disks coated with PA plus OP-1 (40 μg), radiographic, 4 weeks): ≤ 10 mm; inflammation in the specimens ([2]; rat, in vivo): no inflammation; incidence of bone formation ([2]; the two groups treated with OP-1 (40 μg; Groups C and D), 4 weeks): 100%; concentration over which protein spontaneously precipitates [3]: over 5 mg/mL; time after loading at which maximal binding to PA is achieved [4]: 5 h
